Holding throughout (assay type): cell-based
Experiment [1] deals with cultured human mast cells (CHMC). The experiment in a line: CHMC low cell density IgE activation: tryptase and LTC4 assays. As to conditions: Homo sapiens, Mast cell, Low Density CHMC, anti-IgE activation. Summed up: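 Cultured human mast cells at low density (1000-1500 per well) rested 1 h at 37° C, then stimulated with anti-IgE for 30 min at 37° C. Supernatant tryptase measured with fluorogenic substrate (30 min, room temperature); LTC4 quantified by ELISA on diluted supernatant.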

Experiment [2] shares this test system. The experiment in a line: CHMC high cell density IgE activation: degranulation (hexos, tryptase, histamine), leukotriene (LTC4) and cytokine (TNFalpha, IL-13) assays. As to conditions: anti-IgE activation. On the procedure: After sensitizing, cells are counted, pelleted (1000 rpm, 5-10 minutes), and resuspended at 1-2×10^6 cells/ml in MT buffer. Add 100 ul of cell suspension to each well and 100 ul of compound dilutions. The final vehicle concentration is 0.5% DMSO. Incubate at 37° C. (5% CO2) for 1 hour. After 1 hour of compound treatment, stimulate cells with 6× anti-IgE. Mix wells with the cells and allow plates to incubate at 37° C. (5% CO2) for one hour. After 1 hour incubation, pellet cells (10 minutes, 1000 RPM) and collect 200 ul per well of the supernatant, being careful not to disturb pellet. Place the supernatant plate on ice. During the 7-hour step (see next) perform tryptase assay on supernatant that had been diluted 1:500. Resuspend cell pellet in 240 ul of CM media containing 0.5% DMSO and corresponding concentration of compound. Incubate CHMC cells for 7 hours at 37° C. (5% CO2). After incubation, pellet cells (1000 RPM, 10 minutes) and collect 225 ul per well and place in −80° C. until ready to perform ELISAS. ELISAS are performed on appropriately diluted samples (determined empirically for each donor cell population so that the sample measurement falls within the standard curve) following the supplier's instructions.

For experiment [3] the test system is unchanged. The experiment in a line: CHMC low cell density ionomycin activation: tryptase assay. As to conditions: Homo sapiens, Mast cell, Low Density CHMC, ionomycin activation, tryptase readout; read-out: CHMC Ionomycin Tryptase.
The subject of experiment [4] is bone marrow derived mast cells (BMMC). Kind of experiment: BMMC high cell density IgE activation: degranulation (hexosiminidase, histamine), leukotriene (LTC4) and cytokine (TNFalpha, IL-6) assays. The settings on record: Mus musculus, anti-IgE activation. The procedure:
After sensitizing, cells are counted, pelleted (1000 rpm, 5-10 minutes), and resuspended at 1-3×10^6 cells/ml in MT buffer. Add 100 ul of cell suspension to each well and 100 ul of compound dilutions. The final vehicle concentration is 0.5% DMSO. Incubate at 37° C. (5% CO2) for 1 hour. After 1 hour of compound treatment, stimulate cells with 6× stimulus (60 ng/ml DNP-BSA). Mix wells with the cells and allow plates to incubate at 37° C. (5% CO2) for one hour. After 1 hour incubation, pellet cells (10 minutes, 1000 RPM) and collect 200 ul per well of the supernatant, being careful not to disturb pellet, and transfer to a clean tube or 96-well plate. Place the supernatant plate on ice. During the 4-5 hour step (see next) perform the hexosiminidase assay. Resuspend cell pellet in 240 ul WEI-conditioned media containing 0.5% DMSO and corresponding concentration of compound. Incubate BMMC cells for 4-5 hours at 37° C. (5% CO2). After incubation, pellet cells (1000 RPM, 10 minutes) and collect 225 ul per well and place in −80° C. until ready to perform ELISAS. ELISAS are performed on appropriately diluted samples (determined empirically for each donor cell population so that the sample measurement falls within the standard curve) following the supplier's instructions.
Add 50 uL of BMMC cell supernatant (see above) to the hexoseaminidase substrate, place at 37° C. for 30 minutes and read the plate at 5, 10, 15, and 30 minutes on a spectrophotometer.

[5] abbreviates: LTC4 readout, read-out: CHMC anti-IgE LTC4.
[6] abbreviates: tryptase readout, read-out: CHMC anti-IgE Tryptase.
The mark [7] stands for this setting: LTC4, read-out: CHMC high density LTC4.
[8] abbreviates: TNF-alpha, read-out: CHMC high density TNF-alpha.
The mark [9] stands for this setting: hexosaminidase release, read-out: CHMC high density hexos.
Where [10] appears, read: histamine release, read-out: CHMC high density histamine.
The mark [11] stands for this setting: tryptase release, read-out: CHMC high density tryptase.
The mark [12] stands for this setting: IL-6 release, read-out: BMMC anti-IgE IL-6 IC50.
The mark [13] stands for this setting: LTC4 release, read-out: BMMC anti-IgE LTC4 IC50.
The mark [14] stands for this setting: TNF-alpha release, read-out: BMMC anti-IgE TNF-alpha IC50.
Setting [15] is: hexosaminidase release, read-out: BMMC anti-IgE hexos IC50.
[16] abbreviates: histamine release, read-out: BMMC anti-IgE histamine IC50.
Where [17] appears, read: IL-13, read-out: CHMC high density IL-13.
[18] abbreviates: hexosaminidase readout, read-out: CHMC anti-IgE Hexos.

Like-named read-outs stand apart in the source and are kept apart here.

Turning to `COC(=O)C1Cc2cc(Nc3ncc(F)c(Nc4ccc(OC(C)C)cc4)n3)ccc2O1` (stereo not shown) [Compound R926706, 5-Fluoro-N2-(2,3-dihydro-2-(methoxycarbonyl)benzofuran-5-yl)-N4-(4-isopropoxyphenyl)-2,4-pyrimidinediamine], the IC50 is 78 nM in experiment [1] (setting [5]); 70 nM in experiment [1] (setting [6]); 1490 nM in experiment [2] (setting [7]); more than 10000 nM in experiment [2] (setting [8]); more than 2000 nM in experiment [2] (setting [9]); more than 10000 nM in experiment [2] (setting [10]). The IC50 was more than 10000 nM in experiment [2] (setting [11]) and 2410 nM in experiment [3].
Regarding `O=C1COc2ccc(Nc3ncc(F)c(Nc4cccc(O)c4)n3)cc2N1` [Compound R909238, N2-(1,4-Benzoxazin-3-on-6-yl)-5-fluoro-N4-(3-hydroxyphenyl)-2,4-pyrimidinediamine], the IC50 in experiment [4] (setting [12]) is less than 220 nM; in experiment [4] (setting [13]), 521 nM; in experiment [4] (setting [14]) it was 432 nM; in experiment [4] (setting [15]), less than 220 nM; in experiment [4] (setting [16]), less than 220 nM.
On to `CCc1ccc(Nc2ncc(F)c(Nc3ccc4c(c3)OCCO4)n2)cc1` [Compound R926237, N4-(3,4-Ethylenedioxyphenyl)-N2-(4-ethylphenyl)-5-fluoro-2,4-pyrimidinediamine], for which the IC50 came out at 1210 nM in experiment [1] (setting [6]), 1900 nM in experiment [4] (setting [15]) and 6200 nM in experiment [3].
Regarding `OCc1cc2cc(Nc3ncc(F)c(Nc4cccc(O)c4)n3)ccc2o1` [Compound R926707, 5-Fluoro-N2-[2-(hydroxymethyl)benzofuran-5-yl]-N4-(3-hydroxyphenyl)-2,4-pyrimidinediamine], the IC50 is 214 nM in experiment [1] (setting [6]); less than 56 nM in experiment [4] (setting [12]); 390 nM in experiment [4] (setting [13]); 88 nM in experiment [4] (setting [14]); less than 56 nM in experiment [4] (setting [15]); less than 56 nM in experiment [4] (setting [16]). The IC50 in experiment [3] was more than 10000 nM.
As for `OCc1cc2cc(Nc3ncc(F)c(Nc4cccc(O)c4)n3)ccc2[nH]1` [Compound R926700, 5-Fluoro-N4-(3-hydroxyphenyl)-N2-[2-(hydroxymethyl)-(1H)-indol-5-yl]-2,4-pyrimidinediamine], the IC50 is 2050 nM in experiment [2] (setting [17]); less than 1100 nM in experiment [2] (setting [7]); less than 1100 nM in experiment [2] (setting [8]); less than 1100 nM in experiment [2] (setting [9]); less than 1100 nM in experiment [2] (setting [10]); less than 1100 nM in experiment [2] (setting [11]). For the same compound, the IC50 in experiment [3] was more than 10000 nM.
For `Cc1cc(Nc2ncc(F)c(Nc3cc(C)c(O)c(Cl)c3)n2)cc(Cl)c1O` [Compound R940216, N2,N4-Bis-(3-chloro-4-hydroxy-5-methylphenyl)-5-fluoro-2,4-pyrimidinediamine], the IC50 in experiment [1] (setting [6]) is 268 nM; in experiment [2] (setting [17]), 3010 nM; in experiment [2] (setting [7]), less than 1100 nM; in experiment [2] (setting [8]) it was 3190 nM; in experiment [2] (setting [9]) it was less than 1100 nM; in experiment [2] (setting [10]), 1180 nM. Also, the IC50 is less than 1100 nM in experiment [2] (setting [11]) and 7300 nM in experiment [3].
As to `CCc1ccc(Nc2ncc(F)c(Nc3ccc(CC)cc3)n2)cc1` [Compound R926234, N2,N4-Bis(4-ethylphenyl)-5-fluoro-2,4-pyrimidinediamine], the IC50 in experiment [1] (setting [18]) and in experiment [4] (setting [15]) was more than 10000 nM throughout.
In the case of `COC(=O)c1cc2cc(Nc3ncc(F)c(Nc4ccc(OC(C)C)cc4)n3)ccc2o1` [Compound R926704, 5-Fluoro-N2-(2-methoxycarbonylbenzofuran-5-yl)-N4-(4-isopropoxyphenyl)-2,4-pyrimidinediamine], the IC50 in experiment [1] (setting [6]) is 564 nM; in experiment [2] (setting [7]), more than 10000 nM; in experiment [2] (setting [8]), more than 10000 nM; in experiment [2] (setting [9]), more than 2000 nM; in experiment [2] (setting [10]) it was more than 10000 nM; in experiment [2] (setting [11]), more than 10000 nM. The IC50 in experiment [3] is more than 10000 nM.
As to `Nc1cc(Cl)cc(Nc2ncc(F)c(Nc3cc(N)cc(Cl)c3)n2)c1` [Compound R950141, N2,N4-Bis(3-amino-5-chlorophenyl)-5-fluoro-2,4-pyrimidinediamine], the IC50 worked out at 310 nM in experiment [1] (setting [6]); 798 nM in experiment [2] (setting [17]); 201 nM in experiment [2] (setting [7]); 1060 nM in experiment [2] (setting [8]); 567 nM in experiment [2] (setting [9]); 627 nM in experiment [2] (setting [10]). The IC50 is 618 nM in experiment [2] (setting [11]) and more than 10000 nM in experiment [3].
In the case of `COC(=O)c1cc2cc(Nc3ncc(F)c(Nc4cccc(O)c4)n3)ccc2o1` [Compound R926614, 5-Fluoro-N4-(3-hydroxyphenyl)-N2-(2-methoxycarbonylbenzofuran-5-yl)-2,4-pyrimidinediamine], the IC50 in experiment [1] (setting [6]) was 228 nM; in experiment [2] (setting [17]), 6440 nM; in experiment [2] (setting [8]), more than 10000 nM; in experiment [2] (setting [9]) it was more than 10000 nM; in experiment [2] (setting [11]), more than 10000 nM; in experiment [3], more than 10000 nM.
Regarding `CNC(=O)c1cc2cc(Nc3ncc(F)c(Nc4ccc5c(c4)OCCO5)n3)ccc2o1` [Compound R926496, N4-(3,4-Ethylenedioxyphenyl)-5-fluoro-N2-[2-(N-methylamino)carbonylbenzofuran-5-yl]-2,4-pyrimidinediamine], the IC50 was determined as 571 nM in experiment [1] (setting [6]); 414 nM in experiment [2] (setting [7]); 622 nM in experiment [2] (setting [8]); 429 nM in experiment [2] (setting [9]); 809 nM in experiment [2] (setting [10]); 533 nM in experiment [2] (setting [11]). Moreover, the IC50 in experiment [3] was more than 10000 nM.
On to `CNC(=O)c1cc2cc(Nc3ncc(F)c(Nc4ccc(C(C)(C)C)cc4)n3)ccc2o1` [Compound R926494, N4-(4-tert-Butylphenyl)-5-fluoro-N2-[2-(N-methylamino)carbonylbenzofuran-5-yl]-2,4-pyrimidinediamine], for which the IC50 is 78 nM in experiment [1] (setting [5]); 313 nM in experiment [1] (setting [6]); 326 nM in experiment [2] (setting [7]); more than 10000 nM in experiment [2] (setting [8]); 640 nM in experiment [2] (setting [9]); more than 10000 nM in experiment [2] (setting [10]). The IC50 in experiment [2] (setting [11]) is more than 2000 nM; in experiment [3] it was more than 10000 nM.
In the case of `CC(C)Oc1ccc(Nc2nc(Nc3ccc4oc(CO)cc4c3)ncc2F)cc1` [Compound R926705, 5-Fluoro-N2-[2-(hydroxymethyl)benzofuran-5-yl]-N4-[4-(isopropoxy)phenyl]-2,4-pyrimidinediamine], the IC50 in experiment [1] (setting [5]) is 533 nM; in experiment [1] (setting [6]), 263 nM; in experiment [2] (setting [7]) it was 494 nM; in experiment [2] (setting [8]), more than 10000 nM; in experiment [2] (setting [9]), 1010 nM; in experiment [2] (setting [10]) it was 641 nM. In addition, the IC50 is 1260 nM in experiment [2] (setting [11]) and more than 10000 nM in experiment [3].
As to `CCOC(=O)c1cccc(Nc2ncc(F)c(Nc3cccc(C(=O)OCC)c3)n2)c1` [Compound R926228, N2,N4-Bis(3-ethoxycarbonylphenyl)-5-fluoro-2,4-pyrimidinediamine], the IC50 in experiment [1] (setting [18]) and in experiment [4] (setting [15]) was more than 10000 nM each time.
For the compound `Brc1cnc(Nc2cccc(-c3ccccc3)c2)nc1Nc1cccc(-c2ccccc2)c1` [Compound R925803, N2,N4-Bis(3-phenylphenyl)-5-bromo-2,4-pyrimidinediamine], the IC50 in experiment [1] (setting [6]) and in experiment [3] was more than 10000 nM throughout.

Values taken from patent publication US10828301B2, “2,4-pyrimidinediamine compounds and their uses” (Rigel Pharmaceuticals, Inc, priority 2002, dated 2020).
